Source: the NIST ThermoML archive (doi:10.1016/j.jct.2017.05.022)
Numbers after ± are expanded uncertainties.

Tests used:
[1] = for specific volume / mass density: 101.33 kPa; for specific volume: X-ray diffraction; for mass density: Liquid, Vibrating tube method
[2] = Solid-liquid equilibrium temperature; conditions: Crystal, DTA
[3] = Molar enthalpy of transition or fusion; conditions: Crystal; DSC

SMILES: O=C(OCCN1CCOCC1)c1cccnc1Nc1cccc(C(F)(F)F)c1
- specific volume ([1]; 100 K, Crystal): 0.0006857 ± 1e-06 m3/kg
- specific volume ([1]; 125 K, Crystal): 0.0006872 ± 1e-06 m3/kg
- specific volume ([1]; 150 K, Crystal): 0.0006912 ± 1.1e-06 m3/kg
- specific volume ([1]; 175 K, Crystal): 0.000693 ± 1.1e-06 m3/kg
- specific volume ([1]; 200 K, Crystal): 0.0006968 ± 1.1e-06 m3/kg
- specific volume ([1]; 225 K, Crystal): 0.0006995 ± 1.1e-06 m3/kg
- specific volume ([1]; 250 K, Crystal): 0.0007035 ± 1.1e-06 m3/kg
- specific volume ([1]; 273 K, Crystal): 0.0007063 ± 1.1e-06 m3/kg
- specific volume ([1]; 298.2 K, Crystal): 0.0007115 ± 1.1e-06 m3/kg
- specific volume ([1]; 315 K, Crystal): 0.0007135 ± 1.1e-06 m3/kg
- specific volume ([1]; 320 K, Crystal): 0.0007145 ± 1.1e-06 m3/kg
- mass density ([1]; 323.15 K): 1262.9 ± 0.5 kg/m3
- specific volume ([1]; 325 K, Crystal): 0.0007147 ± 1.1e-06 m3/kg
- mass density ([1]; 325.65 K): 1260.6 ± 0.5 kg/m3
- mass density ([1]; 328.15 K): 1258.4 ± 0.5 kg/m3
- specific volume ([1]; 330 K, Crystal): 0.0007156 ± 1.1e-06 m3/kg
- mass density ([1]; 330.65 K): 1256.2 ± 0.5 kg/m3
- specific volume ([1]; 332 K, Crystal): 0.0007166 ± 1.1e-06 m3/kg
- mass density ([1]; 333.15 K): 1254 ± 0.5 kg/m3
- specific volume ([1]; 335 K, Crystal): 0.0007171 ± 1.1e-06 m3/kg
- mass density ([1]; 335.15 K): 1252.2 ± 0.5 kg/m3
- specific volume ([1]; 337 K, Crystal): 0.0007171 ± 1.1e-06 m3/kg
- mass density ([1]; 337.65 K): 1249.9 ± 0.5 kg/m3
- specific volume ([1]; 340 K, Crystal): 0.0007177 ± 1.1e-06 m3/kg
- mass density ([1]; 340.15 K): 1247.7 ± 0.5 kg/m3
- specific volume ([1]; 342 K, Crystal): 0.0007184 ± 1.1e-06 m3/kg
- mass density ([1]; 342.65 K): 1245.4 ± 0.5 kg/m3
- mass density ([1]; 345.15 K): 1243.2 ± 0.4 kg/m3
- specific volume ([1]; 347 K, Crystal): 0.0007192 ± 1.1e-06 m3/kg
- mass density ([1]; 347.65 K): 1240.9 ± 0.4 kg/m3
- mass density ([1]; 350.15 K): 1238.7 ± 0.4 kg/m3
- mass density ([1]; 352.65 K): 1236.4 ± 0.4 kg/m3
- mass density ([1]; 355.16 K): 1234.2 ± 0.4 kg/m3
- mass density ([1]; 357.65 K): 1231.9 ± 0.4 kg/m3
- mass density ([1]; 360.15 K): 1229.7 ± 0.4 kg/m3
- mass density ([1]; 362.65 K): 1227.4 ± 0.4 kg/m3
- Normal melting temperature ([1]; Crystal, DTA): 75.0 ± 0.9 °C
- Glass transition temperature ([1]; Glass, DSC): -23.7 ± 1.2 °C
- Solid-liquid equilibrium temperature ([2]; 100 kPa): 348.1 ± 0.8 K
- Solid-liquid equilibrium temperature ([2]; 32000 kPa): 358.5 ± 3.1 K
- Solid-liquid equilibrium temperature ([2]; 58000 kPa): 366.9 ± 3.1 K
- Solid-liquid equilibrium temperature ([2]; 79000 kPa): 374.5 ± 3.1 K
- Solid-liquid equilibrium temperature ([2]; 115000 kPa): 382.7 ± 3.1 K
- Solid-liquid equilibrium temperature ([2]; 140000 kPa): 390.7 ± 3.1 K
- Solid-liquid equilibrium temperature ([2]; 155000 kPa): 396 ± 3.1 K
- Solid-liquid equilibrium temperature ([2]; 201000 kPa): 403.7 ± 3.1 K
- Solid-liquid equilibrium temperature ([2]; 244000 kPa): 421.5 ± 3.1 K
- Molar enthalpy of transition or fusion [3]: 8.45 ± 0.359 kcal/mol
